Laboratory results reported in ChEMBL document CHEMBL1201862, “PubChem BioAssay data set” (2004).
Each block holds one compound with its values, some of them ahead of it. Calls of active or inactive are those of the source.

Legend:
[1] = molecular target: Heat shock protein HSP 90-alpha (Homo sapiens, UniProt P07900); assay type: functional, organism-based
[2] = molecular target: T1, Short transient receptor potential channel 4 (Mus musculus, UniProt Q9QUQ5); test: mouse TRPC4 channel activators, dose response, cell-based, HEK293 TRPC4/mu-opioid, Fluo-4 calcium (AID 434937); assay type: functional
T1 sequence (Q9QUQ5 whole entry): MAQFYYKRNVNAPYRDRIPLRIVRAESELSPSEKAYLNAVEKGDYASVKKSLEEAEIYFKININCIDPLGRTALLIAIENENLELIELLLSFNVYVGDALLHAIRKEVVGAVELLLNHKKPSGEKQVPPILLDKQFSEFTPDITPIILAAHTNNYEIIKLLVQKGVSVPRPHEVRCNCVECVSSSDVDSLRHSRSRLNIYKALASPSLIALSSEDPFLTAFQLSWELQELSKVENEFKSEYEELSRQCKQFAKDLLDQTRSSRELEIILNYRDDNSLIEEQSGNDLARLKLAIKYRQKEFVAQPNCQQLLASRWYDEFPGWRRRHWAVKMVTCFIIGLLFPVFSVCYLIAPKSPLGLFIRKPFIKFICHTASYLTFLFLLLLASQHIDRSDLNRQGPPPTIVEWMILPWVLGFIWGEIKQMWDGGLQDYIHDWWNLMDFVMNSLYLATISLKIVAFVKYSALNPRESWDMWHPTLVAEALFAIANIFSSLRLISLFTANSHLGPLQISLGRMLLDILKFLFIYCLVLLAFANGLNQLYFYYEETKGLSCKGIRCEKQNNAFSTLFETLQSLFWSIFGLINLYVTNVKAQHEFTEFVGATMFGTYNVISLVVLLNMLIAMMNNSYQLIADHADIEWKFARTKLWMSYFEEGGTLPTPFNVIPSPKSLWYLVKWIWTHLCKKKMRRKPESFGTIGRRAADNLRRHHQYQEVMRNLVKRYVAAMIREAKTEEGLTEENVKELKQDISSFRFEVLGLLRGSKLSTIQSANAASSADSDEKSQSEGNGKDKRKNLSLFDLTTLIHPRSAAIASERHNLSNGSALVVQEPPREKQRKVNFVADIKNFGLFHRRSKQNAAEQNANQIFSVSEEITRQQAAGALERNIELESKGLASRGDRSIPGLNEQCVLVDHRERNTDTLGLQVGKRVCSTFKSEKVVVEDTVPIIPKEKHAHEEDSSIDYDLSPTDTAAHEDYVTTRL

[3] = molecular target: Large T antigen (Simian virus 40, UniProt P03070); assay type: functional, Betapolyomavirus macacae;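 note: Confirmatory-stage PubChem screen for compounds that inhibit SV40 T antigen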
[4] = molecular target: Induced myeloid leukemia cell differentiation protein Mcl-1 (Homo sapiens, UniProt Q07820); assay type: functional
[5] = molecular target: Genome polyprotein (dengue virus type 2, UniProt P29990); test: Dengue-2 NS5 methyltransferase inhibitors, primary screen, biochemical, confirmation dose response (AID 588689); assay type: functional
[6] = cytotoxicity toward NIH3T3 fibroblasts, dose response, counter-screen, cell-based, ATP luminescence, mouse fibroblasts (AID 2010); assay type: functional;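 note: cells exposed to compound for about 90 hours before reading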
[7] = inhibitors of intracellular T. cruzi replication, confirmation, NIH3T3 host cells, beta-gal luminescence (AID 2044); assay type: functional, cell-based;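 note: intracellular parasites grown in NIH/3T3 mouse fibroblasts as host cells; luminescent beta-galactosidase reporter signal from transgenic T. cruzi replicating inside host cells; inhibitors lower the luminescence signal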
[8] = molecular target: T2, Polyadenylate-binding protein 1 (Homo sapiens, UniProt P11940); test: PABP1 MLLE–PAM2 interaction inhibitors, dose response, miRNA deadenylation inhibitor project, biochemical, fluorescence polarization, Cy5-PAM2 peptide, secondary (AID 602260); assay type: functional; details: read-out: IC50_Mean
[9] = molecular target: T2, Polyadenylate-binding protein 1; test: PABP1 MLLE–PAM2 binding inhibitor potency, dose response, biochemical, fluorescence polarization, FITC-PAM2 peptide (AID 602259); assay type: functional; details: read-out: IC50_Mean
[10] = molecular target: T3, Corticotropin-releasing factor receptor 2/Corticotropin-releasing factor-binding protein (Homo sapiens, UniProt P24387+Q13324); test: activators of CRF receptor 2 with binding protein – uHTS hits, confirmation (AID 602473); assay type: functional; details: read-out: EC50_Mean
T3 sequence (Q13324 whole entry): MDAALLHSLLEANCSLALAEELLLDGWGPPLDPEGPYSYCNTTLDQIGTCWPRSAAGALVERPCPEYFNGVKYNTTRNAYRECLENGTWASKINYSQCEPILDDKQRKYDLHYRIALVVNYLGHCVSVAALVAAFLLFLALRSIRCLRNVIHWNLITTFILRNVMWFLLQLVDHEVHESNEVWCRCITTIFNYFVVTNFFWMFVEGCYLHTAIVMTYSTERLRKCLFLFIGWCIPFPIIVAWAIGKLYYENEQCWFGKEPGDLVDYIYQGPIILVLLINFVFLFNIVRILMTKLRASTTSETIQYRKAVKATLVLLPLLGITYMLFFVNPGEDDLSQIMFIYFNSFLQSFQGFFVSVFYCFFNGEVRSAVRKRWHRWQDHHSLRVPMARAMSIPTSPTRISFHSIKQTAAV
T3 sequence (P24387 whole entry): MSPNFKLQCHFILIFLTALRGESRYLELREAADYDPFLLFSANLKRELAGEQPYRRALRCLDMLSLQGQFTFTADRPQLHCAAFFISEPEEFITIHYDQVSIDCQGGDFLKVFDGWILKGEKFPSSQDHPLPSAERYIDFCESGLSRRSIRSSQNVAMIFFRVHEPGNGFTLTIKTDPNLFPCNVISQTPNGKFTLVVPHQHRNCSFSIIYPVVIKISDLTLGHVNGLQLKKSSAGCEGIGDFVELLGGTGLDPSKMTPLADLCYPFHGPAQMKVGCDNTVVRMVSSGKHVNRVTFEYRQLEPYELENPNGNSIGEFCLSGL

[11] = molecular target: T4, Rac GTPase-activating protein 1 (Homo sapiens, UniProt Q9H0H5); test: MgcRacGAP GTPase-activating activity inhibitors, confirmation, biochemical, ADP Hunter fluorescence, primary and confirmatory (AID 624330); assay type: functional
T4 sequence (Q9H0H5 whole entry): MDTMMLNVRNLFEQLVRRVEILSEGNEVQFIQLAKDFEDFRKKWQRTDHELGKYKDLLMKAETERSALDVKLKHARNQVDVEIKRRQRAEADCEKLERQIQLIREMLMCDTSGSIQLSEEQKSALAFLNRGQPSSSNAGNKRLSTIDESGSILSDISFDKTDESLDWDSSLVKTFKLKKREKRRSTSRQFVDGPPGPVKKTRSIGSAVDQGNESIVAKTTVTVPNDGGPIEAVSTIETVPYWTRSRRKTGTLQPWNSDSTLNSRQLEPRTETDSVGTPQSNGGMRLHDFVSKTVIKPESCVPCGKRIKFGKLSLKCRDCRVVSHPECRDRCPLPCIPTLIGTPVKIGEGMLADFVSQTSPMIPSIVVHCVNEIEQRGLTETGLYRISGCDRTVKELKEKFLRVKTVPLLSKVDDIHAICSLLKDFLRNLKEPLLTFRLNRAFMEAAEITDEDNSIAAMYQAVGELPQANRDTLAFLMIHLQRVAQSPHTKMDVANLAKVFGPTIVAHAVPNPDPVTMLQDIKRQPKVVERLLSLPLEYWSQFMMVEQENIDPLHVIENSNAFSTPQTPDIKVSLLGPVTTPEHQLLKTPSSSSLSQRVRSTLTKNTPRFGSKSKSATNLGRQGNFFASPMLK

[12] = molecular target: FAD-linked sulfhydryl oxidase ALR (Homo sapiens, UniProt P55789); test: inhibitors of human ALR sulfhydryl oxidase, dose response, biochemical, H2O2 detection, luminescence, cherry-pick (AID 493248)
[13] = system: INS1; test: beta cell apoptosis inhibitors, cytokine rescue, dose response, luminescence, retest (AID 449756); assay type: functional, cell-based; details: Rattus norvegicus;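 note: cell death triggered by IL-1 beta plus TNF-alpha plus IFN-gamma mixture; protective hits raise ATP signal compared with cytokine alone wells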
[14] = system: SN12K1; test: cells; assay type: functional; details: Homo sapiens
[15] = system: P388; test: cells; assay type: functional; details: Mus musculus
[16] = system: P388/ADR; test: cells; assay type: functional; details: Mus musculus
[17] = intracellular Trypanosoma cruzi inhibitors in host cells – cell-based, plate reader, cherry-pick samples, set 3, dose response (AID 651818); assay type: functional;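 note: compounds incubated with infected cells for about four days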

T2 sequence (P11940 whole entry): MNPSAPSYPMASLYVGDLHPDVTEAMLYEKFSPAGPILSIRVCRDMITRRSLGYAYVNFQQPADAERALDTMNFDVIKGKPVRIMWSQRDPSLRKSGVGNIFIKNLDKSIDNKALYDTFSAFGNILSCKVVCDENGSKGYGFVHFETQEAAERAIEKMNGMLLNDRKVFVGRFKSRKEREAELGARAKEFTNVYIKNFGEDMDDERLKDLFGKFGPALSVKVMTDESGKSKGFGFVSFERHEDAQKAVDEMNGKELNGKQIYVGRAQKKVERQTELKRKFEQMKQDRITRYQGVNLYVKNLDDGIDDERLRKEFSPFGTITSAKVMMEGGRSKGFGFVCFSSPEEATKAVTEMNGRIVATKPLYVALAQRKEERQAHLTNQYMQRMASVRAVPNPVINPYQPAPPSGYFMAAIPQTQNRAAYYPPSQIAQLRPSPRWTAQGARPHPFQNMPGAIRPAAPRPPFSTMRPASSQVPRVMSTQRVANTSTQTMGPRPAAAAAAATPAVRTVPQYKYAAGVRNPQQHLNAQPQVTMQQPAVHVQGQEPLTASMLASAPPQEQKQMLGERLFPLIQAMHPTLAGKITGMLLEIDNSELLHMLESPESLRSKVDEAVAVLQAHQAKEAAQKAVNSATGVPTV
Chain of Induced myeloid leukemia cell differentiation protein Mcl-1 (Q07820 whole entry): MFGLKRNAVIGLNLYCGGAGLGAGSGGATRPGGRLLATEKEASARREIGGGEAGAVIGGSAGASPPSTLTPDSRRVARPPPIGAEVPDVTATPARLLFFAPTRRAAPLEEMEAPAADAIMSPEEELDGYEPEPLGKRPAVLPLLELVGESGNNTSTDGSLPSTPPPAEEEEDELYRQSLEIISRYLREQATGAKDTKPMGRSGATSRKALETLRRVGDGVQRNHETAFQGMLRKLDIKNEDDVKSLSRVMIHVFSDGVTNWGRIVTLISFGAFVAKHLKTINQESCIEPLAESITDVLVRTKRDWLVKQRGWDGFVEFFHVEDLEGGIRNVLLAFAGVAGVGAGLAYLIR
Chain of Large T antigen (P03070 whole entry): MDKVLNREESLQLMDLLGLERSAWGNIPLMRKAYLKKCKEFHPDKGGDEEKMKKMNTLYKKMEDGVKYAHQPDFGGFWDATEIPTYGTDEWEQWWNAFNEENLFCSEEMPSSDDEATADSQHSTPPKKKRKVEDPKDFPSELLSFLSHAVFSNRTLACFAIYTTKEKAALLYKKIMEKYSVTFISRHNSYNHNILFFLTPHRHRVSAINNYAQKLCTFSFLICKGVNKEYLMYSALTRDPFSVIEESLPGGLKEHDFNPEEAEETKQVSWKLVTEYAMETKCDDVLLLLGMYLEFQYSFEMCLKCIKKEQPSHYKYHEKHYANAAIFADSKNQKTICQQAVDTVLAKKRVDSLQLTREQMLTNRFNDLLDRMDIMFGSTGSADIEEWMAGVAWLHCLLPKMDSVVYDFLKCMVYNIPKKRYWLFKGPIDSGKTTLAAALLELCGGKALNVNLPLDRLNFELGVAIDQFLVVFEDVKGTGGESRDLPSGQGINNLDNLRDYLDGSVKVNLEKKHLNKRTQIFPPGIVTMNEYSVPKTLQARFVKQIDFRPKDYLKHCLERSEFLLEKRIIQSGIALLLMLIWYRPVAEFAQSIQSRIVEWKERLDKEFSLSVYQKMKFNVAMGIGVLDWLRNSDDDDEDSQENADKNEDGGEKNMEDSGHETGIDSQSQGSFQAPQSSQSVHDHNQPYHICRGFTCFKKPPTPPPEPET
Chain of Genome polyprotein (P29990 2492-3391 limits assumed): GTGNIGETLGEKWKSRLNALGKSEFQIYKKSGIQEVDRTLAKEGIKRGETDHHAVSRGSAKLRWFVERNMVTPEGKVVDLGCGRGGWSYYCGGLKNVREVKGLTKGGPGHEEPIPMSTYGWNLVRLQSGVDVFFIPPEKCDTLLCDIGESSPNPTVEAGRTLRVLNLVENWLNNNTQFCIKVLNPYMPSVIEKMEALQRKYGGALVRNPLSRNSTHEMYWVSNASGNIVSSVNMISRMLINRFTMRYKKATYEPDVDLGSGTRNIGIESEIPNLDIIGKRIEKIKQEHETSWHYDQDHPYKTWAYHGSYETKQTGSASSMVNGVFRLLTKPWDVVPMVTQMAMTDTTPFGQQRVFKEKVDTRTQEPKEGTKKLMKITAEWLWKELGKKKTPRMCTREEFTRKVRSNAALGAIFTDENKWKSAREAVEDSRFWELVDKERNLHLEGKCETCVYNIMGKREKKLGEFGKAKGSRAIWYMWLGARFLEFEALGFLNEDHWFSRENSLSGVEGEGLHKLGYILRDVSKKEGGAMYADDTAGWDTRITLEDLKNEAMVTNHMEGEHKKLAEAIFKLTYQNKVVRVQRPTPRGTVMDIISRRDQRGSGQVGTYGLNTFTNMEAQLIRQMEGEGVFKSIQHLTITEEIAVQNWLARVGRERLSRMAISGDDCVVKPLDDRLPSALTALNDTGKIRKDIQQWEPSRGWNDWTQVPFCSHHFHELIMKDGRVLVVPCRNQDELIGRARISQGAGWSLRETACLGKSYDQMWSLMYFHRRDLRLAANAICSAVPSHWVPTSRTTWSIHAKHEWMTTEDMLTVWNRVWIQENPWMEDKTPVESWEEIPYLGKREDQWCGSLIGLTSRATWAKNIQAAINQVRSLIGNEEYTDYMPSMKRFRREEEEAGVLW
Chain of FAD-linked sulfhydryl oxidase ALR (P55789 whole entry): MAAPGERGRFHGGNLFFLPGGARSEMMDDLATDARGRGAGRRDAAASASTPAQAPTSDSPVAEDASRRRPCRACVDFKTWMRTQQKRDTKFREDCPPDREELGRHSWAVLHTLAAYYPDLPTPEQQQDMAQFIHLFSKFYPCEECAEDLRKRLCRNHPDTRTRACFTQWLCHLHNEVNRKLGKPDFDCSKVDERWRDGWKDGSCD

AC50 [1]: 8 µM (active)
SMILES: Cc1ccc2nc(-c3ccc(NS(C)(=O)=O)cc3)cc(-c3ccccc3)c2c1

IC50 [3]: 45.8 µM (active)
SMILES: COC(=O)CSc1nnc(CNc2ccc(OC)cc2)n1C

EC50 [2]: 1.88 µM (active)
SMILES: COC(=O)C1CCN(Cc2cn(-c3ccccc3)nc2-c2ccc3c(c2)OCO3)CC1

IC50 [5]: 36.3 µM (active)
SMILES: Cc1ccc(S(=O)(=O)N2[C@@H](c3cccc(Cl)c3)C(C(=O)O)=CC[C@H]2c2ccc(C(C)C)cc2)cc1

AC50 [1]: 3.34 µM (active)
SMILES: O=C1CC(N2CCN(c3nc4ccccc4s3)CC2)C(=O)N1Cc1cccs1 (centres undefined)

IC50 [8]: > 66 µM (inactive) | IC50 [9]: > 66 µM (inactive)
SMILES: Cc1ccc(NC(S)=Nc2ccccn2)cc1C

IC50 [4]: > 54 µM (active) | EC50 [10]: 2.87 µM (active)
SMILES: CCOC(=O)c1c(-c2ccc(C)cc2)csc1NC(=O)/C(C#N)=C/c1ccc(O)c(OC)c1

IC50 [4]: 5.8 µM (active)
SMILES: O=C(CSc1ccsc1[N+](=O)[O-])N1CCN(c2ccc(Cl)cc2)CC1

AC50 [1]: 8.73 µM (active)
SMILES: Cc1noc(O)c1N=Nc1c(Cl)cccc1Cl

IC50 [5]: > 100 µM (active)
SMILES: Cc1nn(CCc2nc(-c3ccco3)cs2)c2nc(O)cc(C(F)(F)F)c12

IC50 [11]: 20.2 µM (active) | IC50 [3]: 7.79 µM (active)
SMILES: COC(=O)C1=C(O)/C(=C\c2ccc(O)c(OC)c2)N=C1C

IC50 [8]: > 66 µM (inactive) | IC50 [9]: > 66 µM (inactive)
SMILES: Cc1cccc(N(C)C(=O)CCS(=O)(=O)c2cc3c(cc2Cl)NC(=O)CO3)c1

AC50 [12]: 8.25 µM (active) | EC50 [2]: 6.68 µM (active)
SMILES: COc1ccc(N2CCN(Cc3nc4ccccc4n3C)CC2)cc1

IC50 [3]: 33.6 µM (active)
SMILES: COc1ccc(-c2c(-c3ccc(O)cc3O)n[nH]c2C)cc1OC

IC50 [8]: > 66 µM (inactive) | IC50 [9]: > 66 µM (inactive)
SMILES: CC(C)c1ccc(O)c(NC(=S)NC(=O)CCc2ccccc2)c1

IC50 [8]: > 66 µM (inactive) | IC50 [9]: > 66 µM (inactive)
SMILES: COc1ccc(/C(C)=N\NC(=O)CSc2nnc(C)s2)cc1

IC50 [4]: 3.5 µM (not active)
SMILES: COc1ccc2[nH]c3c(=O)n(Cc4ccc(C(=O)N5CCCC5)cc4)c(=S)[nH]c3c2c1

IC50 [4]: < 0.4 µM (active)
SMILES: O=[N+]([O-])c1cccc(N/N=C/c2cc([N+](=O)[O-])ccc2O)c1

IC50 [3]: 10.4 µM (active)
SMILES: CCOc1cc(/C=N/NC(=O)CCn2nnc3ccccc32)ccc1O

IC50 [3]: 19.1 µM (active)
SMILES: COc1ccc(OC)c(/C=N/NC(=O)CCc2ccc(O)c(O)c2)c1

AC50 [1]: 0.378 µM (active)
SMILES: O=C1C=CC(=O)N1c1cccc(-c2ccccc2)c1

IC50 [3]: 17.1 µM (active)
SMILES: Oc1cccc2cnccc12

The next lines start with the compound.

SMILES: CCCN(CCC)CCCNC(=O)C1CCN(S(=O)(=O)c2cccc3nsnc23)CC1
EC50 [2]: 0.133 µM (active)

SMILES: C=CCc1c(C)nc(SCCC)nc1O
IC50 [4]: 9.1 µM (not active)

SMILES: Cc1ccc(C)c(OCCCCCn2ccnc2)c1
EC50 [6]: 4.76 µM (active) | EC50 [2]: 3.35 µM (active) | EC50 [7]: 0.505 µM (active)

SMILES: CC1CC(C)CN(CCCNS(=O)(=O)c2cc(Br)cc3c2N(C(=O)C2CC2)CC3)C1 (centres undefined)
EC50 [2]: 0.0267 µM (active)

SMILES: Cc1cc(-c2ccccc2)cc(C)[n+]1Cc1ccccc1.[O-][Cl+3]([O-])([O-])[O-]
AC50 [13]: 0.719 µM (active) | EC50 [2]: 1.88 µM (active)

SMILES: CNc1nc(N(C)C)nc(N(C)C)n1
GI50 [14]: 1220 µM (inactive) | GI50 [15]: 1070 µM (inactive) | GI50 [16]: 646 µM (inactive)

SMILES: COC(=O)C1C(O)C(C)C(O)C(C)/C=C\C=C(C)C(=O)Nc2c(C)c(OC(C)=O)c3c(c2O)C(=O)C(C)=C2OCOC(=C23)C(C)=CC(C)(O)C(O)C(C)C1O (centres undefined)
GI50 [14]: 30.2 µM (inactive) | GI50 [15]: 15.5 µM (inactive) | GI50 [16]: 20.1 µM (inactive)

SMILES: Cc1noc(C)c1S(=O)(=O)Nc1cccc2c1O[C@H](CN(C)Cc1ccc(C(=O)Nc3ccccc3N)cc1)[C@H](C)CN([C@H](C)CO)C2=O
AC50 [17]: 3.53 µM (active)

SMILES: C[C@H](CO)N1C[C@H](C)[C@@H](CN(C)Cc2ccc(-c3ccccc3)cc2)Oc2c(NC(=O)CCCCCC(=O)Nc3ccccc3N)cccc2C1=O
AC50 [17]: 1.6 µM (active)

SMILES: C[C@H]1CN([C@@H](C)CO)C(=O)c2cccc(NS(=O)(=O)c3ccc(Cl)cc3)c2O[C@H]1CN(C)Cc1ccc(C(=O)Nc2ccccc2N)cc1
AC50 [17]: 2.28 µM (active)

SMILES: C[C@H](CO)N1C[C@H](C)[C@H](CN(C)S(=O)(=O)c2cccs2)Oc2c(NC(=O)c3nc4ccccc4s3)cccc2C1=O
AC50 [17]: 1.67 µM (active)

SMILES: C[C@@H]1CN([C@H](C)CO)C(=O)c2cccc(NC(=O)CCCCCC(=O)Nc3ccccc3N)c2O[C@H]1CN(C)CC1CCCCC1
AC50 [17]: 3.18 µM (active)

SMILES: Cc1ccc(S(=O)(=O)Nc2ccc3c(c2)C(=O)N([C@@H](C)CO)C[C@@H](C)[C@@H](CN(C)Cc2ccc(Cl)c(Cl)c2)O3)cc1
AC50 [17]: 3.36 µM (active)

SMILES: C[C@H]1CN([C@@H](C)CO)C(=O)Cc2cc(N(C)C)ccc2O[C@@H]1CN(C)Cc1ccc(C(F)(F)F)cc1
AC50 [17]: 0.991 µM (active)

SMILES: COc1cc(C2c3cc4c(cc3[C@@H](Nc3cccc(O)c3)C3COC(=O)[C@H]23)OCO4)cc(OC)c1O (some centres undefined)
GI50 [14]: 0.279 µM (active) | GI50 [15]: < 0.01 µM (active) | GI50 [16]: 0.251 µM (active)

SMILES: O=[N+]([O-])c1oc2ccc3ccccc3c2c1CCO
AC50 [1]: 1.23 µM (active)
